Where two headings read alike, the source gives them in different places. Starred links: 1 amine or outer side, 2 acyl side, 3 side chain; linkers in the order of their positions; H or OH if unused. Non-standard residues stand in square brackets, D forms with d. Residues, ends and D or L forms follow the SMILES beside them. Groups on a side chain read outwards from the residue. *: point of attachment. C20 diacid = O=C(O)CCCCCCCCCCCCCCCCCCC(=O)*; C18 diacid = O=C(O)CCCCCCCCCCCCCCCCC(=O)*; Dip = N[C@H](C(=O)O)C(c1ccccc1)c1ccccc1; γGlu = O=C(O)[C@H](CCC(=O)[*:2])N[*:1]; X3 = O=C(CN(Cc1c[nH]cn1)[*:1])[*:2]; Stearoyl = CCCCCCCCCCCCCCCCCC(=O)*; Palmitoyl = CCCCCCCCCCCCCCCC(=O)*; αMeF = C[C@](N)(Cc1ccccc1)C(=O)O; PEG2 = NCCOCCOCCC(=O)O; AEEA = NCCOCCOCC(=O)O; Aib = CC(C)(N)C(=O)O
Key:
[1] = biological target: T1, human GLP-1 receptor (hGLP-1R) (Homo sapiens, UniProt P43220); assay: cAMP production (HTRF) in CHO cells expressing human GLP-1 receptor; assay type: cell-based; settings: for EC50: geometric mean, cAMP, read-out: hGLP-1R EC50; for % Relative Potency Ratio: % GLP-1R activity relative to GLP-1 / % GlucR activity relative to glucagon
T1 construct: expressed in transfected cells; host or cells: CHO

[2] = biological target: T2, human glucagon receptor (hGCGR) (Homo sapiens, UniProt P47871); assay: cAMP production (HTRF) in CHO cells expressing human glucagon receptor; assay type: cell-based; settings: read-out: hGluc-R EC50
T2 construct: expressed in transfected cells; host or cells: CHO
Procedure: Cells were re-suspended in assay buffer at a batch-dependent optimized concentration (typically hGLP-1R cells at 1×10^5 cells/mL, hGCGR cells at 2×10^5 cells/mL).
Cells were added to the assay plate using a multidrop dispenser and incubated at room temperature for 30 minutes before measuring the cAMP level using a cAMP dynamic 2 homogeneous time resolved Fluorescence (HTRF) kit (Cisbio Bioassays #62AM4PEJ) following the two-step protocol as per manufacturer's recommendations. In brief, anti-cAMP cryptate (donor fluorophore) and cAMP-d2 (acceptor fluorophore) were made up separately by diluting each 1 in 20 in conjugate and lysis buffer provided in the kit. Anti-cAMP cryptate was added to all wells of the assay plate, followed by cAMP-d2 added to all wells except non-specific binding (NSB) wells (to which conjugate and lysis buffer was added).
Data was transformed to % Delta F as described in the manufacturer's guidelines and analyzed by 4-parameter logistic fit to determine EC50 values.

[3] = Table 10, peptides modified at position 13, geometric mean, CHO cells
[4] = Table 6, modification at position 17, CHO cells expressing hGLP-1R
[5] = Table 6, modification at position 17, CHO cells expressing hGCGR, geometric mean
[6] = Table 8, peptides modified at position 24, CHO cells
[7] = Table 8, peptides modified at position 24, geometric mean, CHO cells

T2 sequence (P47871 26-477): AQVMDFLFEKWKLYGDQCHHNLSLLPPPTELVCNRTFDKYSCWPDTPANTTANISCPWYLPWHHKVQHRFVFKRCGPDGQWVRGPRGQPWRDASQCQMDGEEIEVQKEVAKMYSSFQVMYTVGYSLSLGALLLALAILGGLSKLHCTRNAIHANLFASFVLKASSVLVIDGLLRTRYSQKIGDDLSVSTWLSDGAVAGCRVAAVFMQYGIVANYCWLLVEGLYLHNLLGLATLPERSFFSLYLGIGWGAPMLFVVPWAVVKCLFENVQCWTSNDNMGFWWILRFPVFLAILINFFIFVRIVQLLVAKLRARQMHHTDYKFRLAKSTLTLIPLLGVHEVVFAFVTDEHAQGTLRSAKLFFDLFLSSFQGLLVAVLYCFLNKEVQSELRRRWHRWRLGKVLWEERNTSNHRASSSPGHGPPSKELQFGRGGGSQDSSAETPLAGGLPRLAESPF
T1 sequence (P43220 24-463): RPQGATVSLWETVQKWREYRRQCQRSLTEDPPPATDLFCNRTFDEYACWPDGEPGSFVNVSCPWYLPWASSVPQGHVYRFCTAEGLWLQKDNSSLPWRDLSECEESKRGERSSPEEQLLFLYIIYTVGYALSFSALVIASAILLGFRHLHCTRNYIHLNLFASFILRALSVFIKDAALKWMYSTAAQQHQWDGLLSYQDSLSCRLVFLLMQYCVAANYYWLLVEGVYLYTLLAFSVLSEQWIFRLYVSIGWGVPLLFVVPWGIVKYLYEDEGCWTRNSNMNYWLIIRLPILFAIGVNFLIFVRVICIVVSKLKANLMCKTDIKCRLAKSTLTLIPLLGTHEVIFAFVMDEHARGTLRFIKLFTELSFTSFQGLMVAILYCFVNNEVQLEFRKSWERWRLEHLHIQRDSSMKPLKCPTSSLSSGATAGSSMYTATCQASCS

With `CC[C@H](C)[C@H](NC(=O)C(C)(C)NC(=O)[C@H](CCC(N)=O)NC(=O)[C@@H](NC(=O)[C@](C)(Cc1ccccc1)NC(=O)[C@H](CC(=O)O)NC(=O)[C@H](CCC(N)=O)NC(=O)[C@H](C)NC(=O)[C@H](C)NC(=O)[C@H](CCCNC(=N)N)NC(=O)[C@H](CO)NC(=O)[C@H](CC(=O)O)NC(=O)[C@H](CC(C)C)NC(=O)[C@H](CCCCNC(=O)COCCOCCNC(=O)COCCOCCNC(=O)CC[C@H](NC(=O)CC[C@H](NC(=O)CCCCCCCCCCCCCCCCCCC(=O)O)C(=O)O)C(=O)O)NC(=O)[C@H](CCCCN)NC(=O)[C@H](CO)NC(=O)[C@@H](NC(=O)[C@H](CC(=O)O)NC(=O)[C@H](CO)NC(=O)[C@@H](NC(=O)[C@](C)(Cc1ccccc1)NC(=O)[C@H](CO)NC(=O)CNC(=O)[C@H](Cc1c[nH]cn1)NC(=O)C(C)(C)NC(=O)[C@@H](N)Cc1c[nH]cn1)[C@@H](C)O)C(C)C)C(C)C)C(=O)N[C@@H](C)C(=O)N[C@@H](CC(N)=O)C(=O)N[C@H](C(N)=O)[C@@H](C)O` [Peptide 405] (H-H[Aib]HGS[αMeF]TSDVSKK([AEEA-AEEA-γGlu-γGlu-C20 diacid])LDSRAAQD[αMeF]VQ[Aib]IANT-NH2) the EC50 ([1]; Table 10, peptides modified at position 13, CHO cells) was 1.04 nM, the “% Relative Potency Ratio” value ([1]; Table 10) was 16.3 and the EC50 [2, 3] was 8.59 nM.
With `CC[C@H](C)[C@H](NC(=O)C(C)(C)NC(=O)[C@H](CCC(N)=O)NC(=O)[C@@H](NC(=O)[C@](C)(Cc1ccccc1)NC(=O)[C@H](CC(=O)O)NC(=O)[C@H](CCC(N)=O)NC(=O)[C@H](C)NC(=O)[C@H](C)NC(=O)[C@H](CCCNC(=N)N)NC(=O)[C@H](CO)NC(=O)[C@H](CC(=O)O)NC(=O)[C@H](CC(C)C)NC(=O)[C@](C)(Cc1ccccc1)NC(=O)[C@H](CCCCN)NC(=O)[C@H](CO)NC(=O)[C@H](CCCCNC(=O)COCCOCCNC(=O)COCCOCCNC(=O)CC[C@H](NC(=O)CCCCCCCCCCCCCCCCC(=O)O)C(=O)O)NC(=O)[C@H](CC(=O)O)NC(=O)[C@H](CO)NC(=O)[C@@H](NC(=O)[C@](C)(Cc1ccccc1)NC(=O)[C@H](CO)NC(=O)CNC(=O)[C@H](Cc1c[nH]cn1)NC(=O)C(C)(C)NC(=O)[C@@H](N)Cc1c[nH]cn1)[C@@H](C)O)C(C)C)C(=O)N[C@@H](C)C(=O)N[C@@H](CC(N)=O)C(=O)N[C@H](C(N)=O)[C@@H](C)O` [Peptide 392] (H-H[Aib]HGS[αMeF]TSDK([AEEA-AEEA-γGlu-C18 diacid])SK[αMeF]LDSRAAQD[αMeF]VQ[Aib]IANT-NH2) the EC50 ([1]; Table 9, peptides modified at position 10, CHO cells) was 0.312 nM, the “% Relative Potency Ratio” value ([1]; Table 9) was 43.8 and the EC50 ([2]; Table 9, peptides modified at position 10, geometric mean, CHO cells) was 6.92 nM.
`CCCCCCCCCCCCCCCCCC(=O)N[C@@H](CCC(=O)N[C@@H](CCC(=O)NCCOCCOCCC(=O)NCCOCCOCCC(=O)NCCCC[C@H](NC(=O)[C@H](CO)NC(=O)[C@H](CC(=O)O)NC(=O)[C@H](CC(C)C)NC(=O)[C@@H](NC(=O)[C@H](CCCCN)NC(=O)[C@H](CO)NC(=O)[C@@H](NC(=O)[C@H](CC(=O)O)NC(=O)[C@H](CO)NC(=O)[C@@H](NC(=O)[C@](C)(Cc1ccccc1)NC(=O)[C@H](CO)NC(=O)CNC(=O)[C@H](CCC(N)=O)NC(=O)C(C)(C)NC(=O)[C@@H](N)Cc1c[nH]cn1)[C@@H](C)O)C(C)C)C(c1ccccc1)c1ccccc1)C(=O)N[C@@H](C)C(=O)N[C@@H](C)C(=O)N[C@@H](CCC(N)=O)C(=O)N[C@@H](CC(=O)O)C(=O)N[C@@](C)(Cc1ccccc1)C(=O)N[C@H](C(=O)N[C@@H](CCC(=O)O)C(=O)NC(C)(C)C(=O)N[C@@H](CC(C)C)C(=O)N[C@@H](CCC(=O)O)C(=O)N[C@@H](C)C(=O)NCC(=O)NCC(N)=O)C(C)C)C(=O)O)C(=O)O` [Peptide 44] (H-H[Aib]QGS[αMeF]TSDVSK[Dip]LDSK([PEG2-PEG2-γGlu-γGlu-Stearoyl])AAQD[αMeF]VE[Aib]LEAGG-NH2; N-terminus assumed) was tested, and the EC50 [1, 4] was 0.00212 nM, the “% Relative Potency Ratio” value ([1]; Table 6) was 17.0 and the EC50 [2, 5] was 0.0182 nM.
Compound `CC(C)C[C@H](NC(=O)[C@H](Cc1c[nH]c2ccccc12)NC(=O)[C@H](CCCNC(=N)N)NC(=O)[C@@H](NC(=O)[C@H](Cc1ccccc1)NC(=O)[C@H](CC(=O)O)NC(=O)[C@H](CCC(N)=O)NC(=O)[C@H](C)NC(=O)[C@H](CCCNC(=N)N)NC(=O)[C@H](CCCCNC(=O)COCCOCCNC(=O)COCCOCCNC(=O)CC[C@H](NC(=O)CCCCCCCCCCCCCCCCCCC(=O)O)C(=O)O)NC(=O)[C@@H](NC(=O)[C@H](CC(=O)O)NC(=O)[C@H](CC(C)C)NC(=O)[C@](C)(Cc1ccccc1)NC(=O)[C@H](CCCCN)NC(=O)[C@H](CO)NC(=O)[C@@H](NC(=O)[C@H](CC(=O)O)NC(=O)[C@H](CO)NC(=O)[C@@H](NC(=O)[C@H](Cc1ccccc1)NC(=O)[C@@H](NC(=O)CNC(=O)[C@H](CCC(N)=O)NC(=O)C(C)(C)NC(=O)[C@@H](N)Cc1c[nH]cn1)[C@@H](C)O)[C@@H](C)O)C(C)C)[C@@H](C)O)C(C)C)C(=O)N[C@@H](CCC(=O)O)C(=O)N[C@@H](C)C(=O)NC(C)(C)C(=O)NCC(=O)O` [Peptide 407] has an EC50 [1, 4] of 0.209 nM and an EC50 [2, 5] of 0.462 nM.
With `CC[C@H](C)[C@H](NC(=O)[C@H](Cc1c[nH]c2ccccc12)NC(=O)[C@H](CCCCNC(=O)COCCOCCNC(=O)COCCOCCNC(=O)CC[C@H](NC(=O)CC[C@H](NC(=O)CCCCCCCCCCCCCCCCCCC(=O)O)C(=O)O)C(=O)O)NC(=O)[C@@H](NC(=O)[C@H](Cc1ccccc1)NC(=O)[C@H](CC(=O)O)NC(=O)[C@H](CCC(N)=O)NC(=O)[C@H](C)NC(=O)[C@H](C)NC(=O)[C@H](CCCNC(=N)N)NC(=O)[C@H](CO)NC(=O)[C@H](CC(=O)O)NC(=O)[C@H](CC(C)C)NC(=O)[C@](C)(Cc1ccccc1)NC(=O)[C@H](CCCCN)NC(=O)[C@H](CO)NC(=O)[C@@H](NC(=O)[C@H](CC(=O)O)NC(=O)[C@H](CO)NC(=O)[C@@H](NC(=O)[C@](C)(Cc1ccccc1)NC(=O)[C@H](CO)NC(=O)CNC(=O)[C@H](Cc1c[nH]cn1)NC(=O)[C@H](CO)NC(=O)CNCc1c[nH]cn1)[C@@H](C)O)C(C)C)C(C)C)C(=O)N[C@@H](C)C(=O)N[C@@H](CC(N)=O)C(=O)N[C@H](C(N)=O)[C@@H](C)O` [Peptide 380] (H-[X3]SHGS[αMeF]TSDVSK[αMeF]LDSRAAQDFVK([AEEA-AEEA-γGlu-γGlu-C20 diacid])WIANT-NH2; N-terminus assumed) the EC50 [1, 6] was 0.871 nM and the EC50 [2, 7] was 14.9 nM.
For `CCCCCCCCCCCCCCCC(=O)N[C@@H](CCC(=O)NCCOCCOCCC(=O)NCCOCCOCCC(=O)NCCCC[C@H](NC(=O)[C@H](CCCCN)NC(=O)[C@H](CO)NC(=O)[C@@H](NC(=O)[C@H](CC(=O)O)NC(=O)[C@H](CO)NC(=O)[C@@H](NC(=O)[C@](C)(Cc1ccccc1)NC(=O)[C@H](CO)NC(=O)CNC(=O)[C@H](CCC(N)=O)NC(=O)C(C)(C)NC(=O)[C@@H](N)Cc1c[nH]cn1)[C@@H](C)O)C(C)C)C(=O)N[C@@H](CC(C)C)C(=O)N[C@@H](CC(=O)O)C(=O)N[C@@H](CO)C(=O)N[C@@H](CCCNC(=N)N)C(=O)N[C@@H](C)C(=O)N[C@@H](C)C(=O)N[C@@H](CCC(N)=O)C(=O)N[C@@H](CC(=O)O)C(=O)N[C@@](C)(Cc1ccccc1)C(=O)N[C@H](C(=O)N[C@@H](CCC(=O)O)C(=O)N[C@@H](Cc1c[nH]c2ccccc12)C(=O)N[C@H](C(=O)N[C@@H](C)C(=O)N[C@@H](CC(N)=O)C(=O)N[C@H](C(N)=O)[C@@H](C)O)[C@@H](C)CC)C(C)C)C(=O)O` [Peptide 401] (H-H[Aib]QGS[αMeF]TSDVSKK([PEG2-PEG2-γGlu-Palmitoyl])LDSRAAQD[αMeF]VEWIANT-NH2), the “% Relative Potency Ratio” value ([1]; Table 10) was 32.3 and the EC50 [2, 3] was 0.00954 nM.
`CC[C@H](C)[C@H](NC(=O)C(C)(C)NC(=O)[C@H](CCCCNC(=O)COCCOCCNC(=O)COCCOCCNC(=O)CC[C@H](NC(=O)CC[C@H](NC(=O)CCCCCCCCCCCCCCCCC(=O)O)C(=O)O)C(=O)O)NC(=O)[C@@H](NC(=O)[C@](C)(Cc1ccccc1)NC(=O)[C@H](CC(=O)O)NC(=O)[C@H](CCC(N)=O)NC(=O)[C@H](C)NC(=O)[C@H](C)NC(=O)[C@H](CCCNC(=N)N)NC(=O)[C@H](CO)NC(=O)[C@H](CC(=O)O)NC(=O)[C@H](CC(C)C)NC(=O)[C@](C)(Cc1ccccc1)NC(=O)[C@H](CCCCN)NC(=O)[C@H](CO)NC(=O)[C@@H](NC(=O)[C@H](CC(=O)O)NC(=O)[C@H](CO)NC(=O)[C@@H](NC(=O)[C@](C)(Cc1ccccc1)NC(=O)[C@H](CO)NC(=O)CNC(=O)[C@H](Cc1c[nH]cn1)NC(=O)C(C)(C)NC(=O)[C@@H](N)Cc1c[nH]cn1)[C@@H](C)O)C(C)C)C(C)C)C(=O)N[C@@H](C)C(=O)N[C@@H](CC(N)=O)C(=O)N[C@H](C(N)=O)[C@@H](C)O` [Peptide 372] (H-H[Aib]HGS[αMeF]TSDVSK[αMeF]LDSRAAQD[αMeF]VK([AEEA-AEEA-γGlu-γGlu-C18 diacid])[Aib]IANT-NH2; N-terminus assumed) was tested, and the EC50 [1, 6] was 0.0718 nM, the “% Relative Potency Ratio” value ([1]; Table 8) was 1.0 and the EC50 [2, 7] was 0.0351 nM.

Source: patent US12630600B2 (MEDIMMUNE LIMITED, priority 2022, dated 2026)
